As a reminder, the IC50 is the concentration that inhibits the measured activity by half.

Assay [1] relates to Plasmodium falciparum. Briefly: Antiplasmodial activity against chloroquine-sensitive Plasmodium falciparum 3D7 by [3H]hypoxanthine incorporation. In kind it is functional, organism-based.
In the next assay the test system is KB. The assay is described as follows: Cytotoxicity against human KB cells. In kind it is functional. To be noted: read-out: ED50 (the source's name).
The subject of assay [2] is Plasmodium falciparum. Briefly: Antiplasmodial activity against chloroquine-resistant Plasmodium falciparum K1 by [3H]hypoxanthine incorporation. It is filed as functional, organism-based.
The subject of assay [3] is Plasmodium falciparum. The assay is described as follows: Antiplasmodial activity against chloroquine-sensitive Plasmodium falciparum D10 by [3H]hypoxanthine incorporation. In kind it is functional, organism-based.
In assay [4] the test system is Plasmodium falciparum. Briefly: Antiplasmodial activity against chloroquine-resistant Plasmodium falciparum W2 by [3H]hypoxanthine incorporation. It is filed as functional, organism-based.
Assay [5] has as its system Plasmodium berghei. Briefly: Antimalarial activity against Plasmodium berghei ANKA infected BALB/c mice (Mus musculus) as reduced parasitaemia at 30 mg/kg intraperitoneal dose after 4 days. In kind it is functional. Set-up: scale not given: the % may be the effect or the level left.
Assay [6] concerns Mus musculus. The assay is described as follows: Survival of Plasmodium Berghei ANKA infected BALB/c mice (Mus musculus) at 30 mg/kg, intraperitoneally. It is filed as functional, organism-based. Set-up: dose 30 mg/kg.
In assay [7] the target is T1, Histidine-rich protein PFHRP-II (Plasmodium falciparum) (UniProt P05227).
T1 sequence (whole entry): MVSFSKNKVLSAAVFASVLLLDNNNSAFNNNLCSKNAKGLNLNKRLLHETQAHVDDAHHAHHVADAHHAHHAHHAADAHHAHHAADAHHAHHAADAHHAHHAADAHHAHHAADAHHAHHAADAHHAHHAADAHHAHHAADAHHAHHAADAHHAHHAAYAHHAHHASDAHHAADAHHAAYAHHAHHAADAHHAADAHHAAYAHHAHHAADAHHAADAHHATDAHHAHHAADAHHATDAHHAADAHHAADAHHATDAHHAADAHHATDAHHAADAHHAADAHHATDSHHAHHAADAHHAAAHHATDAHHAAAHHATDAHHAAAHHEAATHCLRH
Briefly: Inhibition of beta-hematin formation by BHIA. In kind it is functional.

The subject of assay [8] is Plasmodium berghei. Briefly: Reduced parasitemia in Plasmodium berghei ANKA infected BALB/c mice (Mus musculus) at 10 mg/kg intraperitoneal dose after 4 days. It is filed as functional. Also on record: scale not given: the % may be the effect or the level left.
The test system of assay [9] is Mus musculus. The assay is described as follows: Survival of Plasmodium Berghei ANKA infected BALB/c mice (Mus musculus) at 10 mg/kg, intraperitoneally. In kind it is functional, organism-based. Set-up: dose 10 mg/kg.

Active and inactive are the calls of the source. The calls are words filed in the database; no cut-off is given here. Some results are limits rather than exact numbers.

For the compound `Clc1ccc2c(N/N=C/c3ccc[nH]3)ccnc2c1`, the IC50 with Plasmodium falciparum [1] is 25.8 nM; with Plasmodium falciparum [2] it was 53.1 nM; in the assay on Plasmodium falciparum [3], 210 nM; with Plasmodium falciparum [4], 256 nM. Besides, in the assay with KB, the EC50 amounted to 4800 nM.

In the case of `Clc1ccc2c(N/N=C/c3ccc(CN4CCCC4)cc3)ccnc2c1`, the Activity is 83% in the assay with Plasmodium berghei [5] and “Dose-dependent effect” in [7]. Besides, the result with Mus musculus [6] was Active. For the same compound, the EC50 with KB came out at 19500 nM.

As for `COc1ccc(/C=N/Nc2ccnc3ccc(OC)cc23)cc1`, the Activity with Plasmodium berghei [5] came out at 38%. The compound further returned an IC50 in the assay on Plasmodium falciparum [1] of 65.1 nM.

For the compound `Clc1ccc2c(N/N=C/c3cccs3)ccnc2c1`, the IC50 amounted to 167 nM in the assay with Plasmodium falciparum [1], 577 nM in the assay with Plasmodium falciparum [2], 504 nM in the assay on Plasmodium falciparum [3] and 855 nM in the assay with Plasmodium falciparum [4]. In addition, the EC50 in the assay with KB was 10400 nM.

In turn, `COc1ccc2nc3cc(Cl)ccc3c(N/N=C/c3ncc[nH]3)c2c1` came in with an Activity with Plasmodium berghei [5] of 40%. Also, in the assay with Mus musculus [6], the result was Active. Moreover, in the assay on KB, the EC50 is 5100 nM.

Take `Cc1noc(C)c1/C=N/Nc1ccnc2cc(Cl)ccc12`: the IC50 was found to be 125 nM with Plasmodium falciparum [1], 2130 nM with Plasmodium falciparum [2], 347 nM in the assay on Plasmodium falciparum [3] and 509 nM with Plasmodium falciparum [4]. The EC50 with KB was 171000 nM.

With `CCN(CC)CCCC(C)Nc1ccnc2cc(Cl)ccc12` (stereo not given) [CHLOROQUINE], the Activity in the assay on Plasmodium berghei [8] was 98%; in [7] it was “Dose-dependent effect”. Besides, in the assay with KB, the EC50 turned out to be 260000 nM. For the same compound, the result with Mus musculus [9] was Active.

Consider `Oc1cc(/C=N/Nc2ccnc3cc(Cl)ccc23)ccc1CN1CCCC1`, for which, in the assay with Plasmodium berghei [5], the Activity is reported as 71%. Moreover, in the assay with Mus musculus [6], the outcome was Active. Besides, the IC50 was found to be 0.9 nM in the assay on Plasmodium falciparum [1], 39.6 nM in the assay on Plasmodium falciparum [2], 21.4 nM with Plasmodium falciparum [3] and 18.9 nM in the assay with Plasmodium falciparum [4]. The EC50 with KB came out at 152000 nM.

For the compound `Cn1cncc1/C=N/Nc1ccnc2cc(Cl)ccc12`, the IC50 with Plasmodium falciparum [1] amounted to 48.9 nM; in the assay with Plasmodium falciparum [2] it was 385 nM; in the assay on Plasmodium falciparum [3], 174 nM; in the assay with Plasmodium falciparum [4] it was 249 nM. For the same compound, in the assay with KB, the EC50 was determined as 73800 nM.

Consider `Cn1ccnc1/C=N/Nc1ccnc2cc(Cl)ccc12`, for which the IC50 with Plasmodium falciparum [1] was found to be 61.5 nM; in the assay with Plasmodium falciparum [2], 270 nM; with Plasmodium falciparum [3], 197 nM; in the assay with Plasmodium falciparum [4], 86.9 nM. Moreover, in the assay on KB, the EC50 was 17100 nM.

`O=C(NNc1ccnc2cc(Cl)ccc12)c1ncc[nH]1`: the IC50 was 5460 nM in the assay with Plasmodium falciparum [1], over 10000 nM with Plasmodium falciparum [2], 6470 nM with Plasmodium falciparum [3] and over 10000 nM with Plasmodium falciparum [4].

With `COc1ccc2nc3cc(Cl)ccc3c(N/N=C/c3ccc(CN4CCCC4)cc3)c2c1`, the Activity with Plasmodium berghei [5] stood at 19%. In the assay on Mus musculus [6], the result was Active.

Take `O=C(NNc1ccnc2cc(Cl)ccc12)c1c[nH]cn1`: the IC50 with Plasmodium falciparum [1] is 8830 nM; in the assay on Plasmodium falciparum [2], over 10000 nM; in the assay with Plasmodium falciparum [3] it was over 10000 nM; with Plasmodium falciparum [4], over 10000 nM.

In the case of `Clc1ccc2c(N/N=C/c3ccco3)ccnc2c1`, the IC50 was determined as 169 nM with Plasmodium falciparum [1], 824 nM in the assay with Plasmodium falciparum [2], 949 nM in the assay on Plasmodium falciparum [3] and 1390 nM with Plasmodium falciparum [4]. Also, the EC50 in the assay with KB came to 19900 nM. In [7], the Activity result was “Dose-dependent effect”.

As to `Clc1ccc2c(N/N=C/c3ccc4c(c3)OCO4)ccnc2c1`, the IC50 came to 400 nM in the assay with Plasmodium falciparum [1], 30.7 nM with Plasmodium falciparum [2], 184 nM in the assay with Plasmodium falciparum [3] and 203 nM in the assay on Plasmodium falciparum [4].

Consider `Clc1ccc2c(N/N=C/c3ncc[nH]3)ccnc2c1`, for which the IC50 stood at 5.9 nM in the assay on Plasmodium falciparum [1], 31.6 nM in the assay on Plasmodium falciparum [2], 65.2 nM in the assay with Plasmodium falciparum [3] and 23.7 nM in the assay on Plasmodium falciparum [4]. The EC50 in the assay on KB stood at 19500 nM. The Activity entry in assay [7] was “Dose-dependent effect”.

With `COc1ccc(/C=N/Nc2c3c(nc4cc(Cl)ccc24)CCCC3)cc1`, the half-inhibitory concentration (IC50) amounted to 930 nM in the assay on Plasmodium falciparum [1], 2640 nM in the assay on Plasmodium falciparum [2], 760 nM with Plasmodium falciparum [3] and 1330 nM with Plasmodium falciparum [4].

Take `COc1ccc2nccc(N/N=C/c3ccc(N4CCCC4)cc3)c2c1`: the IC50 in the assay on Plasmodium falciparum [1] is 404 nM; in the assay with Plasmodium falciparum [2], 462 nM; in the assay with Plasmodium falciparum [3], 115 nM; with Plasmodium falciparum [4] it was 185 nM.

Regarding `CCN(CC)c1ccc(/C=N/Nc2ccnc3c(OC)cccc23)cc1`, the IC50 in the assay on Plasmodium falciparum [1] worked out at 206 nM; in the assay with Plasmodium falciparum [2], 125 nM; in the assay on Plasmodium falciparum [3], 442 nM; in the assay with Plasmodium falciparum [4], 791 nM.

For the compound `COc1ccc2nc(C)cc(N/N=C/c3ccc4c(c3)OCO4)c2c1`, the IC50 worked out at 507 nM in the assay on Plasmodium falciparum [1], 149 nM with Plasmodium falciparum [2], 132 nM in the assay on Plasmodium falciparum [3] and 184 nM in the assay with Plasmodium falciparum [4].

Regarding `CCN(CC)c1ccc(/C=N/Nc2ccnc3ccc(OC)cc23)cc1`, the IC50 was determined as 22.9 nM in the assay on Plasmodium falciparum [1], 172 nM in the assay with Plasmodium falciparum [2], 142 nM in the assay on Plasmodium falciparum [3] and 166 nM in the assay with Plasmodium falciparum [4].

As for `FC(F)(F)c1ccc(-c2n[nH]cc2/C=N/Nc2ccnc3cc(Cl)ccc23)cc1`, the IC50 amounted to 5 nM in the assay on Plasmodium falciparum [1], 39.6 nM with Plasmodium falciparum [2], 186 nM with Plasmodium falciparum [3] and 258 nM in the assay on Plasmodium falciparum [4]. Moreover, in the assay on KB, the EC50 amounted to 1200 nM. In addition, the Activity entry in assay [7] was “Dose-dependent effect”.

On to `COc1ccc2nccc(N/N=C/c3ccc(CN4CCCC4)cc3)c2c1`, for which the IC50 amounted to 16.7 nM in the assay on Plasmodium falciparum [1], 86.1 nM in the assay on Plasmodium falciparum [2], 24.8 nM with Plasmodium falciparum [3] and 99.4 nM in the assay on Plasmodium falciparum [4].

Regarding `Clc1ccc2c(N/N=C/c3cnc[nH]3)ccnc2c1`, the IC50 in the assay on Plasmodium falciparum [1] was 152 nM; in the assay on Plasmodium falciparum [2], 626 nM; in the assay with Plasmodium falciparum [3], 453 nM; in the assay on Plasmodium falciparum [4], 140 nM. In addition, in the assay on KB, the EC50 came out at 29100 nM.

As to `COc1ccc2nccc(N/N=C/c3ccc4ccccc4n3)c2c1`, the IC50 in the assay on Plasmodium falciparum [1] came out at 125 nM; with Plasmodium falciparum [2], 159 nM; in the assay on Plasmodium falciparum [3], 73 nM; in the assay on Plasmodium falciparum [4], 96 nM.

The values above are taken from ChEMBL document CHEMBL1142372, “Design, synthesis, and structure-activity relationship studies of 4-quinolinyl- and 9-acrydinylhydrazones as potent antimalarial agents” (J Med Chem, 2008).
